Data reported in US10688093B2, “Methods, compositions, and uses of novel Fyn kinase inhibitors” (priority 2015, dated 2020).

Molecular target: full-length recombinant human FYN A (Homo sapiens (Human), UniProt P06241)
Experiment: ADP-Glo Kinase Assay of FYN kinase inhibition
Type: biochemical
Conditions: primary screen, initial compounds
Method in brief: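 ADP-Glo read-out of peptide phosphorylation after 90 min RT with 12.5 pmol ATP and 100 pg 12-mer substrate. Enzyme was N-GST full-length human FYN A from insect cells, 3 pg, pre-incubated 30 min with compound, 10 points from 10 μM top, 3-fold steps; IC50 from curve.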

Chain of full-length recombinant human FYN A (P06241 whole entry): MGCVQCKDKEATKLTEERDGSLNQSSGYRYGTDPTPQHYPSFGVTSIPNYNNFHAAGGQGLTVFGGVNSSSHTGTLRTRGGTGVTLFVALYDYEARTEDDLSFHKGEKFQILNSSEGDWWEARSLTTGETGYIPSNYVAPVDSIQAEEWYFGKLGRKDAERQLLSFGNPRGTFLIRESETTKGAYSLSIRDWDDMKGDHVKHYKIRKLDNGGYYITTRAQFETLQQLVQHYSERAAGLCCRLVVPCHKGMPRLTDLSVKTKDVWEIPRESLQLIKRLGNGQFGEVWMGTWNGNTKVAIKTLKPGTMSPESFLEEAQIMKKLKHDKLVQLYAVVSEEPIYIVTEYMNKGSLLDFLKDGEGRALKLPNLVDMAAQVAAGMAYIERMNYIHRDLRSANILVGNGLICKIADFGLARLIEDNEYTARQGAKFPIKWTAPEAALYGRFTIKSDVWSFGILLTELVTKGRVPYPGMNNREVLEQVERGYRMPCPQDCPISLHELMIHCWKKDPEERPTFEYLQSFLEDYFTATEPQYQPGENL

Row | SMILES | IC50 [nM]
1 | OCc1ccc(-c2ccc3ncc(-c4cccs4)n3n2)cc1 [Compound 378, [4-[3-(2-thienyl)imidazo [1,2-b]pyridazin-6-yl]phenyl] methanol] | 2360
2 | CS(=O)(=O)Nc1cccc(-c2ccc3ncc(-c4cccnc4)n3n2)c1 [Compound 381, N-[3-[3-(3-pyridyl)imidazo [1,2-b]pyridazin-6-yl]phenyl] methane-sulfonamide] | 1410
3 | Oc1cccc(-c2cnc3ccc(-c4ccncc4)nn23)c1 [Compound 382, 3-[6-(4-pyridyl)imidazo [1,2-b]pyridazin-3-yl]phenol] | 203
4 | Oc1cccc(-c2cnc3ccc(-c4cccc5ncccc45)nn23)c1 [Compound 383, 3-[6-(5-quinolyl)imidazo [1,2-b]pyridazin-3-yl]phenol] | 14600
5 | CS(=O)(=O)Nc1cccc(-c2ccc3ncc(-c4cccc(CO)c4)n3n2)c1 [Compound 384] | 1150
6 | CNC(=O)c1cccc(-c2ccc3ncc(-c4cccc(C(C)=O)c4)n3n2)c1 [Compound 386, 3-[3-(3-acetylphenyl)imidazo[1,2-b]pyridazin-6-yl]-N-methyl-benzamide] | 1720
7 | OCc1cccc(-c2ccc3ncc(-c4cccs4)n3n2)c1 [Compound 387, [3-[3-(2-thienyl)imidazo [1,2-b]pyridazin-6-yl]phenyl] methanol] | 1680
8 | Cn1cc(-c2ccc3ncc(-c4cccs4)n3n2)cn1 [Compound 388, 6-(1-methylpyrazol-4-yl)-3-(2-thienyl)imidazo [1,2-b]pyridazine] | 1310
9 | Oc1cccc(-c2cnc3ccc(-c4cccc(F)c4)nn23)c1 [Compound 392, 3-[6-(3-fluorophenyl)imidazo[1,2-b]pyridazin-3-yl]phenol] | 2260
10 | CC(=O)c1cccc(-c2cnc3ccc(-c4cccc(N)c4)nn23)c1 [Compound 393, 1-[3-[6-(3-aminophenyl)imidazo[1,2-b]pyridazin-3-yl]phenyl] ethanone] | 1120
11 | COc1ccccc1-c1ccc2ncc(-c3cccnc3)n2n1 [Compound 394, 6-(2-methoxy-phenyl)-3-(3-pyridyl)imidazo [1,2-b]pyridazine] | 2350
12 | OCc1ccc(-c2cnc3ccc(-c4ccc(F)cc4)nn23)cc1 [Compound 398, [4-[6-(4-fluorophenyl)imidazo[1,2-3]pyridazin-3-yl]phenyl] methanol] | 2940
13 | Fc1ccc(-c2ccc3ncc(-c4cccnc4)n3n2)cc1 [Compound 401, 6-(4-fluorophenyl)-3-(3-pyridyl)imidazo [1,2-b]pyridazine] | 2780
14 | OCc1cccc(-c2ccc3ncc(-c4cccc(Cl)c4)n3n2)c1 [Compound 402, [3-[3-(3-chlorophenyl)imidazo[1,2-b]pyridazin-6-yl]phenyl] methanol] | 9820
15 | Oc1cccc(-c2cnc3ccc(-c4ccc(F)cc4)nn23)c1 [Compound 403, 3-[6-(4-fluorophenyl)imidazo[1,2-b]pyridazin-3-yl]phenol] | 11900
16 | c1ccc(-c2cnc3ccc(-c4cccs4)nn23)cc1 [Compound 404, 3-phenyl-6-(2-thienyl)imidazo [1,2-b]pyridazine] | 1970
17 | CC(=O)Nc1cccc(-c2ccc3ncc(-c4cccc(O)c4)n3n2)c1 [Compound 406, N-[3-[3-(3-hydroxyphenyl)imidazo[1,2-b]pyridazin-6-yl]phenyl] acetamide] | 1650
18 | CNC(=O)c1cccc(-c2ccc3ncc(-c4ccc(OC)c(OC)c4)n3n2)c1 [Compound 408, 3-[3-(3,4-dimethoxyphenyl)imidazo[1,2-b]pyridazin-6-yl]-N-methyl-benzamide] | 3490
19 | c1cncc(-c2cnc3ccc(-c4ccoc4)nn23)c1 [Compound 410, 6-(3-furyl)-3-(3-pyridyl)imidazo [1,2-b]pyridazine] | 2350
20 | Oc1cccc(-c2cnc3ccc(-c4ccoc4)nn23)c1 [Compound 412, 3-[6-(3-furyl)imidazo[1,2-b]pyridazin-3-yl]phenol] | 1060
21 | Cc1cccc(Cc2ccc3ncc(-c4ccncc4)n3n2)c1 [Compound 414, 6-(m-tolylmethyl)-3-(4-pyridyl)imidazo [1,2-b]pyridazine] | 977
22 | Fc1ccc(-c2ccc3ncc(-c4ccc5c(c4)OCO5)n3n2)cc1 [Compound 415, 3-(1,3-benzodioxol-5-yl)-6-(4-fluorophenyl) imidazo[1,2-b]pyridazine] | 7600
23 | COc1ccccc1-c1ccc2ncc(-c3cccc(O)c3)n2n1 [Compound 417, 3-[6-(2-methoxyphenyl)imidazo[1,2-b]pyridazin-3-yl]phenol] | 2740
24 | OCc1ccc(-c2cnc3ccc(-c4ccccc4)nn23)cc1 [Compound 418, [4-(6-phenylimidazo [1,2-b]pyridazin-3-yl)phenyl] methanol] | 1460
25 | CC(=O)Nc1ccc(-c2ccc3ncc(-c4ccc(CO)cc4)n3n2)cc1 [Compound 419, N-[4-[3-[4-(hydroxymethyl)phenyl]imidazo [1,2-b]pyridazin-6-yl]phenyl] acetamide] | 21500
26 | O=C(NCCO)c1cccc(-c2ccc3ncc(-c4ccccc4)n3n2)c1 [Compound 424, N-(2-hydroxyethyl)-3-(3-phenyl-imidazo[1,2-b]pyridazin-6-yl)benzamide] | 13900

Continued by falling IC50, values first:

Row | IC50 [nM] | SMILES
27 | 959 | COc1cc(-c2cnc3ccc(-c4ccccc4OC)nn23)ccc1O [Compound 385, 2-methoxy-4-[6-(2-methoxy-phenyl)imidazo[1,2-b]pyridazin-3-yl]phenol]
28 | 956 | Cn1cc(-c2ccc3ncc(-c4ccc5c(c4)OCO5)n3n2)cn1 [Compound 390, 3-(1,3-benzodioxol-5-yl)-6-(1-methylpyrazol-4-yl)imidazo[1,2-b]pyridazine]
29 | 703 | COc1ccc(-c2cnc3ccc(-c4cccc(NS(C)(=O)=O)c4)nn23)cc1OC [Compound 379, N-[3-[3-(3,4-dimethoxyphenyl)imidazo[1,2-b]pyridazin-6-yl]phenyl] methane-sulfonamide]
30 | 694 | COc1cc(-c2ccc3ncc(-c4cccs4)n3n2)ccc1O [Compound 423, 2-methoxy-4-[3-(2-thienyl)imidazo[1,2-b]pyridazin-6-yl]phenol]
31 | 624 | c1ccc(Cc2ccc3ncc(-c4ccncc4)n3n2)cc1 [Compound 425, 6-benzyl-3-(4-pyridyl)imidazo [1,2-b]pyridazine]
32 | 598 | CC(=O)Nc1cccc(-c2ccc3ncc(-c4ccncc4)n3n2)c1 [Compound 409, N-[3-[3-(4-pyridyl)imidazo [1,2-b]pyridazin-6-yl]phenyl] acetamide]
33 | 586 | Oc1cccc(-c2cnc3ccc(-c4cccnc4)nn23)c1 [Compound 396, 3-[6-(3-pyridyl)imidazo [1,2-b]pyridazin-3-yl]phenol]
34 | 549 | COc1ccc(-c2cnc3ccc(-c4cccnc4)nn23)cc1OC [Compound 405, 3-(3,4-dimethoxy-phenyl)-6-(3-pyridyl)imidazo [1,2-b]pyridazine]
35 | 538 | COc1ccc(-c2ccc3ncc(-c4ccc(OC)c(OC)c4)n3n2)cc1OC [Compound 416, 3,6-bis(3,4-dimethoxyphenyl) imidazo[1,2-b]pyridazine]
36 | 519 | CC(=O)c1cccc(-c2cnc3ccc(-c4cccc(C(N)=O)c4)nn23)c1 [Compound 380, 3-[3-(3-acetylphenyl)imidazo[1,2-b]pyridazin-6-yl]benzamide]
37 | 404 | COc1ccc(-c2cnc3ccc(-c4ccncc4)nn23)cc1OC [Compound 395, 3-(3,4-dimethoxy-phenyl)-6-(4-pyridyl)imidazo [1,2-b]pyridazine]
38 | 388 | Cn1cc(-c2ccc3ncc(-c4cccc(O)c4)n3n2)cn1 [Compound 397, 3-[6-(1-methylpyrazol-4-yl)imidazo[1,2-b]pyridazin-3-yl]phenol]
39 | 371 | CC(=O)c1cccc(-c2cnc3ccc(-c4ccncc4)nn23)c1 [Compound 413, 1-[3-[6-(4-pyridyl)imidazo [1,2-b]pyridazin-3-yl]phenyl] ethanone]
40 | 367 | COc1ccc(-c2cnc3ccc(-c4cnn(C)c4)nn23)cc1OC [Compound 391, 3-(3,4-dimethoxy-phenyl)-6-(1-methylpyrazol-4-yl)imidazo[1,2-b]pyridazine]
41 | 367 | COc1ccc(-c2cnc3ccc(-c4cccc(C(=O)NCCO)c4)nn23)cc1OC [Compound 389, 3-[3-(3,4-dimethoxyphenyl)imidazo[1,2-a]pyridazin-6-yl]-N-(2-hydroxyethyl) benzamide]
42 | 295 | COc1cc(-c2cnc3ccc(-c4cccc(O)c4)nn23)ccc1O [Compound 399, 4-[6-(3-hydroxyphenyl)imidazo[1,2-b]pyridazin-3-yl]-2-methoxy-phenol]
43 | 283 | CC(=O)c1cccc(-c2cnc3ccc(-c4ccc(N)nc4)nn23)c1 [Compound 377, 1-[3-[6-(6-amino-3-pyridyl)imidazo[1,2-b]pyridazin-3-yl]phenyl] ethanone]
44 | 282 | COc1ccc(-c2ccc3ncc(-c4ccncc4)n3n2)cc1OC [Compound 400, 6-(3,4-dimethoxy-phenyl)-3-(4-pyridyl)imidazo [1,2-b]pyridazine]
45 | 259 | COc1ccc(-c2ccc3ncc(-c4cccc(NC(C)=O)c4)n3n2)cc1OC [Compound 411, N-[3-[6-(3,4-dimethoxyphenyl)imidazo[1,2-p]pyridazin-3-yl]phenyl] acetamide]
46 | 179 | CC(=O)c1cccc(-c2cnc3ccc(-c4cccc(CO)c4)nn23)c1 [Compound 421, 1-[3-[6-[3-(hydroxymethyl)phenyl]imidazo [1,2-b]pyridazin-3-yl]phenyl] ethanone]
47 | 125 | COc1cc(-c2cnc3ccc(-c4ccc(CO)cc4)nn23)ccc1O [Compound 407, 4-[6-[4-(hydroxymethyl)phenyl]imidazo [1,2-b]pyridazin-3-yl]-2-methoxy-phenol]
48 | 102 | COc1cc(-c2cnc3ccc(-c4cccc(CO)c4)nn23)ccc1O [Compound 420, 4-[6-[3-(hydroxymethyl)phenyl]imidazo [1,2-b]pyridazin-3-yl]-2-methoxy-phenol]
